Source: article PMC11413964, “Discovery of 1,3-disubstituted prop-2-en-1-one derivatives as inhibitors of neutrophilic inflammation via modulation of MAPK and Akt pathways” (Journal of Enzyme Inhibition and Medicinal Chemistry, 2024)

Legend:
[1] = system: fMLF/cytochalasin B (CB)-activated human neutrophils; test: Elastase release in fMLF/CB-activated human neutrophils; format: cell-based; conditions: 10 μM compound; cytochalasin B only
[2] = system: fMLF/cytochalasin B (CB)-activated human neutrophils; test: Superoxide anion generation (ferricytochrome c reduction) in fMLF/CB-activated human neutrophils; format: cell-based; conditions: Neutrophil, fMLF/CB stimulation, mean ± SEM (n = 3–5); for inhibition at 10 µM: 10 μM compound
Experimental: (§1) The study involving neutrophils was approved by the Institutional Review Board of Chang Gung Memorial Hospital under IRB number: 201902217A3 and was conducted in accordance with the principles of the Declaration of Helsinki. Healthy volunteers aged 20–35 years provided signed informed consents for blood collection. Isolation of neutrophils was done using dextran sedimentation, Ficoll-Hypaque density gradient centrifugation, and hypotonic haemolysis. For the anti-inflammatory studies, neutrophils were suspended in Hank’s balanced salt solution (HBSS) containing 1 mM Ca^2+ at a pH of 7.4[72].
The reduction of ferricytochrome c was utilised to measure the production of SO anions in activated human neutrophils. […] The neutrophils were then stimulated with fMLF (0.1 μM) and CB (1 μg/mL) for 13 min. […] LY294002 was used as a positive control.

ERK = test: Immunoblotting of ERK phosphorylation in fMLF-activated neutrophils; format: cell-based, human; conditions: 10 μM for 5 min, then fMLF 0.1 μM for 30 s
Experimental: (§2) Human neutrophils (2.5 × 10^7 cells/mL) were first subjected to DMSO (0.1%, serving as control) or experimental compounds at 37 °C for 5 min. Following this, cells were stimulated with fMLF (0.1 μM) for 30 s. […] Primary antibodies used included those for p38 (1:8000), phospho-p38 (1:3000), JNK (1:3000), phospho-JNK (1:3000), Akt (1:5000), phospho-Akt (Ser-473) (1:2000), ERK (1:8000), phospho-ERK (1:8000), and HRP-linked anti-rabbit IgG, to measure total and phosphorylated forms of MAPK and Akt proteins. The quantitative measurements for all samples were adjusted to correspond with the levels of the total protein present.

p38 MAPK = test: Immunoblotting of p38 MAPK phosphorylation in fMLF-activated neutrophils; format: cell-based, human; conditions: 10 μM for 5 min, then fMLF 0.1 μM for 30 s
Experimental: as §2

Akt = test: Immunoblotting of Akt phosphorylation in fMLF-activated neutrophils; format: cell-based, human; conditions: 10 μM for 5 min, then fMLF 0.1 μM for 30 s
Experimental: as §2

JNK = test: Immunoblotting of JNK phosphorylation in fMLF-activated neutrophils; format: cell-based, human; conditions: 10 μM for 5 min, then fMLF 0.1 μM for 30 s
Experimental: as §2

[3] = system: fMLF/cytochalasin B (CB)-activated human neutrophils; test: Elastase release in fMLF/CB-activated human neutrophils; format: cell-based; conditions: fMLF/CB stimulation, mean ± SEM (n = 3–5); for inhibition at 10 µM: 10 μM compound
Experimental: as §1
Neutrophils were subsequently stimulated with fMLF (0.1 μM) and CB (0.5 μg/mL) for 13 min. […] LY294002 was used as a positive control.

[4] = system: fMLF/cytochalasin B (CB)-activated human neutrophils; test: Superoxide anion generation (ferricytochrome c reduction) in fMLF/CB-activated human neutrophils; format: cell-based; conditions: 10 μM compound; cytochalasin B only

melting point	IC50 [2]	Structure (SMILES)	inhibition at 10 µM [2]	inhibition at 10 µM ([3]; Homo sapiens, Neutrophil)	also measured
125 to 126 °C		CC(C)(C)C(=O)/C=C/c1ccc([N+](=O)[O-])cc1 [Compound 6, (E)-4,4-Dimethyl-1-(4-nitrophenyl)pent-1-en-3-one]	23.3 ± 2.3%		Induction of elastase release [1]: induced elastase release
132.3 to 133.3 °C	1.23 ± 0.27 µM	COc1cccc(C(=O)/C=C/c2ccc([N+](=O)[O-])cc2)c1 [Compound 6a, (E)-1-(3-Methoxyphenyl)-3-(4-nitrophenyl)prop-2-en-1-one]	99.69 ± 0.18%	84.5 ± 5.73%	Effect on ERK phosphorylation (ERK): did not alter the phosphorylation; Effect on p38 phosphorylation (p38 MAPK): did not alter the phosphorylation; Effect on Akt phosphorylation (Akt): significantly suppressed phosphorylation; Effect on JNK phosphorylation (JNK): significantly suppressed phosphorylation; IC50 ([3]; Homo sapiens, Neutrophil): 1.37 µM; IC50 [3]: 2.22 ± 0.12 µM
		O=C(/C=C/c1ccc(Cl)cc1)c1ccc(-c2ccccc2)cc1 [Compound 11a, (E)-1-([1,1′-Biphenyl]-4-yl)-3-(4-chlorophenyl)prop-2-en-1-one]			Induction of superoxide anion production [4]: an inducer rather than an inhibitor
103 to 104 °C		CC(C)(C)C(=O)/C=C/c1ccc(Cl)cc1Cl [Compound 15, (E)-1-(2,4-Dichlorophenyl)-4,4-dimethylpent-1-en-3-one]	43 ± 2.78%		Induction of elastase release [1]: induced elastase release
70 to 71 °C		Cc1ccc(/C=C/C(=O)C(C)(C)C)cc1F [Compound 18, (E)-1-(3-Fluoro-4-methylphenyl)-4,4-dimethylpent-1-en-3-one]	31.3 ± 4.71%	7.77 ± 0.8%	
117 °C		COc1cccc(C(=O)/C=C/c2ccccc2Cl)c1 [Compound 18a, (E)-3-(2-Chlorophenyl)-1-(3-methoxyphenyl)prop-2-en-1-one]	47.6 ± 5.41%	31.3 ± 7.29%	
84.6 °C		COc1ccc(/C=C/C(=O)C(C)(C)C)cc1F [Compound 19, (E)-1-(3-Fluoro-4-methoxyphenyl)-4,4-dimethylpent-1-en-3-one]	2.87 ± 2.8%	3.9 ± 1.68%	
69 to 70 °C		COc1ccc(/C=C/C(=O)c2ccccc2C)cc1F [Compound 20, (E)-3-(3-Fluoro-4-methoxyphenyl)-1-(o-tolyl)prop-2-en-1-one]	49.8 ± 5.82%	10.6 ± 2.28%	
85 to 86 °C		COc1ccc(C(=O)/C=C/c2ccc(OC)c(F)c2)c(OC)c1 [Compound 21, (E)-1-(2,4-Dimethoxyphenyl)-3-(3-fluoro-4-methoxyphenyl)prop-2-en-1-one]	17.1 ± 3.58%	31.6 ± 5.88%	
96 to 98 °C	3.79 ± 0.69 µM	COc1ccccc1C(=O)/C=C/c1cccc(Cl)c1 [Compound 21a, (E)-3-(3-Chlorophenyl)-1-(2-methoxyphenyl)prop-2-en-1-one]	89.9 ± 2.38%	80.4 ± 4.44%	IC50 ([3]; Homo sapiens, Neutrophil): 5.63 ± 0.51 µM
128 to 129 °C		COc1ccc(/C=C/C(=O)C(C)(C)C)c(F)c1F [Compound 22, (E)-1-(2,3-Difluoro-4-methoxyphenyl)-4,4-dimethylpent-1-en-3-one]	31.4 ± 3.36%	4.84 ± 2.66%	
97 to 99 °C	6.6 ± 0.6 µM	COc1ccc(C(=O)/C=C/c2cccc(Cl)c2)cc1 [Compound 22a, (E)-3-(3-Chlorophenyl)-1-(4-methoxyphenyl)prop-2-en-1-one]	65.2 ± 3.73%	36.1 ± 6.48%	
131 to 132 °C		COc1cc(F)c(/C=C/C(=O)C(C)(C)C)cc1F [Compound 23, (E)-1-(2,5-Difluoro-4-methoxyphenyl)-4,4-dimethylpent-1-en-3-one]	8.1 ± 1.88%	2.5 ± 1.53%	
123.6 to 124 °C	2.03 ± 0.27 µM	O=C(/C=C/c1cc(F)cc(F)c1)c1ccc(Cl)cc1 [Compound 23a, (E)-1-(4-Chlorophenyl)-3-(3,5-difluorophenyl)prop-2-en-1-one]	96.04 ± 0.09%	83 ± 2.64%	IC50 ([3]; Homo sapiens, Neutrophil): 2.32 ± 0.26 µM
95.2 to 97.2 °C		COc1cccc(C(=O)/C=C/c2cc(F)cc(F)c2)c1 [Compound 24a, (E)-3-(3,5-Difluorophenyl)-1-(3-methoxyphenyl)prop-2-en-1-one]	3.12 ± 5.02%	37.1 ± 7.65%	
154.3 to 155 °C	4.7 ± 0.6 µM	COc1ccc(C(=O)/C=C/c2cc(F)cc(F)c2)cc1 [Compound 25a, (E)-3-(3,5-Difluorophenyl)-1-(4-methoxyphenyl)prop-2-en-1-one]	78.2 ± 9.5%	20.9 ± 3.64%	
117 to 119 °C		CC(C)(C)C(=O)/C=C/c1ccc2ccccc2c1 [Compound 26, (E)-4,4-Dimethyl-1-(naphthalen-2-yl)pent-1-en-3-one]	10.6 ± 3.34%		Induction of elastase release [1]: induced elastase release
132.8 to 134.8 °C	1.56 ± 0.27 µM	COc1ccc(C(=O)/C=C/c2cc(F)cc(F)c2)cc1OC [Compound 26a, (E)-3-(3,5-Difluorophenyl)-1-(3,4-dimethoxyphenyl)prop-2-en-1-one]	92.4 ± 2.19%	20.2 ± 3.19%	Effect on ERK phosphorylation (ERK): markedly diminished phosphorylation; Effect on p38 phosphorylation (p38 MAPK): markedly diminished phosphorylation; Effect on Akt phosphorylation (Akt): did not affect; Effect on JNK phosphorylation (JNK): markedly diminished phosphorylation
118 to 120 °C	1.73 ± 0.07 µM	O=C(/C=C/c1ccc2ccccc2n1)c1ccccc1 [Compound 28, (E)-1-Phenyl-3-(quinolin-2-yl)prop-2-en-1-one]	106 ± 1.73%	99.1 ± 7.32%	IC50 ([3]; Homo sapiens, Neutrophil): 2.17 ± 0.3 µM
128 to 130 °C		CC(C)(C)C(=O)/C=C/c1ccc(-c2ccccc2)cc1 [Compound 29, (E)-1-([1,1′-Biphenyl]-4-yl)-4,4-dimethylpent-1-en-3-one]	2.23 ± 0.94%		Induction of elastase release [1]: induced elastase release
98 to 99 °C		CCOc1ccccc1C(=O)/C=C/c1ccc(-c2ccccc2)cc1 [Compound 30, (E)-3-([1,1′-Biphenyl]-4-yl)-1-(2-ethoxyphenyl)prop-2-en-1-one]	8.69 ± 2.43%	15.8 ± 2.57%	

Structure (SMILES)	melting point	IC50 [2]	inhibition at 10 µM [2]	inhibition at 10 µM ([3]; Homo sapiens, Neutrophil)	also measured
CC(C)(C)Oc1ccc(/C=C/C(=O)c2ccc[nH]2)cc1 [Compound 13, (E)-3-(4-(tert-Butoxy)phenyl)-1-(1H-pyrrol-2-yl)prop-2-en-1-one]	116.5 to 118.5 °C				Induction of elastase release [1]: induced elastase release; Induction of superoxide anion production [4]: induced also SO anion generation
